How the values were obtained:
Ebolavirus [1] = experiment: Antiviral activity against Ebola infected in human macrophages assessed as reduction in viral replication; format: functional, organism-based; conditions: Orthoebolavirus, Macrophage
Ebolavirus [2] = experiment: Potency index, ratio of EC50 of GS-441524 to EC50 of test compound for antiviral activity against Ebola infected in human HeLa cells assessed as reduction in viral replication; format: functional
Nipah virus [3] = experiment: Antiviral activity against Nipah M1999 infected in human HeLa cells assessed as reduction in viral replication incubated for 48 to 144 hrs by reporter virus assay; format: functional, organism-based; conditions: Henipavirus nipahense
Nipah virus [4] = experiment: Antiviral activity against Nipah B2004 infected in human NCI-H358 cells assessed as reduction in viral replication incubated for 48 to 144 hrs by reporter virus assay; format: functional, organism-based; conditions: Henipavirus nipahense
Nipah virus [5] = experiment: Potency index, ratio of EC50 of GS-441524 to EC50 of test compound for antiviral activity against Nipah B2004 infected in human NCI-H358 cells assessed as reduction in viral replication incubated for 48 to 144 hrs by reporter virus assay; format: functional, Henipavirus nipahense; conditions: time 48-144 hrs
Measles morbillivirus = experiment: Antiviral activity against Measles virus infected in HMVEC cells assessed as reduction in viral replication; format: functional, organism-based
SARS-CoV [6] = experiment: Antiviral activity against SARS-CoV infected in HAE cells assessed as reduction in viral replication at MOI of 0.5 preincubated for 3 hrs followed by virus removal measured after 48 hrs by Hoechst 33258 staining based assay; format: functional, organism-based; conditions: Severe acute respiratory syndrome-related coronavirus
SARS-CoV [7] = experiment: Potency index, ratio of EC50 of GS-441524 to EC50 of test compound for antiviral activity against SARS-CoV infected in HAE cells assessed as reduction in viral replication at MOI of 0.5 preincubated for 3 hrs followed by virus removal measured after 48 hrs by Hoechst 33258 staining based assay; format: functional, Severe acute respiratory syndrome-related coronavirus; conditions: time 51 hrs
SARS-CoV-2 [8] = experiment: Antiviral activity against SARS-CoV-2 infected in human Huh-7 cells assessed as reduction in virus-induced cytopathic effect at MOI of 0.0037 measured after 4 days by MTS assay; format: functional, organism-based; conditions: Severe acute respiratory syndrome coronavirus 2, Huh-7, 96 h
SARS-CoV-2 [9] = experiment: Potency index, ratio of EC50 of GS-441524 to EC50 of test compound for antiviral activity against SARS-CoV-2 infected in African green monkey Vero E6 cells assessed as reduction in viral replication; format: functional, Severe acute respiratory syndrome coronavirus 2
[10] = tested on: Middle East respiratory syndrome-related coronavirus; experiment: Antiviral activity against MERS-CoV infected in human Calu-3 2B4 cells assessed as reduction in viral replication at MOI of 0.08 infected for 1 hr followed by virus removal and subsequent addition of medium containing compound measured after 48 hrs post-infection by nLUC assay; format: functional, organism-based
[11] = tested on: Middle East respiratory syndrome-related coronavirus; experiment: Antiviral activity against MERS-CoV infected in HAE cells assessed as reduction in viral replication at MOI of 0.5 incubated for 3 hrs followed by virus removal measured after 48 hrs by Hoechst 33258 staining based assay; format: functional, organism-based
[12] = Prodrug conversion in Normal human bronchial epithelial cells assessed as half life of triphosphate metabolite; format: ADME, cell-based; conditions: normal human bronchial epithelial cell
Nipah virus [13] = experiment: Antiviral activity against Nipah virus infected in African green monkey assessed as animal survival at 10 mg/kg, iv qd relative to control; format: functional; conditions: Henipavirus nipahense

Work on `CCC(CC)OC(=O)[C@H](C)N[P@](=O)(OC[C@H]1O[C@@](C#N)(c2ccc3c(N)ncnn23)[C@H](O)[C@@H]1O)Oc1ccccc1` yielded an EC50 (Ebolavirus [1]) of 86 nM, a Ratio (Ebolavirus [2]) of over 143 and an EC50 (Nipah virus [3]) of 66 nM. It also gave an EC50 (Nipah virus [4]) of 32 nM, a Ratio (Nipah virus [5]) of 77 and an EC50 (Measles morbillivirus) of 60 nM. The EC50 (SARS-CoV [6]) was 69 nM, the Ratio (SARS-CoV [7]) was 2.6 and the EC50 (SARS-CoV-2 [8]) was under 1 nM. It also gave a Ratio (SARS-CoV-2 [9]) of 0.7, an EC50 [10] of 69 nM and an EC50 [11] of 74 nM. The t1/2 [12] was 14 h and the survival at 10 mg/kg (Nipah virus [13]) was 100%.
